Test systems include BT-549 breast; MCF7 breast; MDA-MB-231 breast; T-47D breast.
Assay in all cases: NCI anticancer screen, dose series, 48 h

“And” between values parts separate entries of the source, which are not always exact repeats. Equal entries are not always repeated.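 48-hour exposure; five concentrations; linearly interpolated endpoints. Here, GI50 denotes the concentration required for 50% inhibition of growth. The concentration for full growth arrest is given as TGI.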 Where only a bound is given, the exact number is not on record here.

For the molecule `c1ccc(-c2nnc(Nc3ccc4c(c3)OCCO4)o2)c(NCc2ccncc2)c1`, the GI50 was 0.0589 µM with BT-549 breast, 0.0904 µM in the experiment on MCF7 breast, 0.0769 µM with MDA-MB-231 breast and 1.65 µM with T-47D breast. For the same molecule, the TGI is 7.01 µM in the experiment on BT-549 breast, above 38.8 µM in the experiment on MCF7 breast, above 100 µM with MDA-MB-231 breast and 16.9 µM with T-47D breast.
In the case of `CC(=O)OC1CCC2(C)C(CCC3C4CC=C(C(C)=O)C4(C)OC(=O)CC32)C1` (configuration not stated), the GI50 in the experiment with BT-549 breast is 1.58 µM; in the experiment on MCF7 breast, 1.4 µM; with MDA-MB-231 breast, 2.05 µM; in the experiment with T-47D breast, 1.64 µM. The TGI in the experiment on BT-549 breast was found to be 3.08 µM; in the experiment with MCF7 breast it was 3.01 µM; with MDA-MB-231 breast, 4.33 µM; in the experiment on T-47D breast, 3.4 µM.
As to `COc1cc2ccnc3c2c(c1OC)-c1ccc(=O)ccc1-3`, the GI50 was 32.1 µM in the experiment with BT-549 breast, 14.9 µM in the experiment with MCF7 breast, 26.9 µM in the experiment with MDA-MB-231 breast and 27.6 µM in the experiment on T-47D breast. Further, the TGI with BT-549 breast is above 100 µM; in the experiment with MCF7 breast, above 100 µM; in the experiment on MDA-MB-231 breast it was above 100 µM; in the experiment on T-47D breast, 65.5 µM.
As for `CCN(C(=O)CCl)C(C)(C)C(SSSC(c1ccc(Cl)cc1)C(C)(C)N(CC)C(=O)CCl)c1ccc(Cl)cc1` (configuration not stated), the GI50 is 10.3 µM in the experiment on BT-549 breast, 5.09 µM in the experiment on MCF7 breast, 3.58 µM in the experiment with MDA-MB-231 breast and 5.3 µM in the experiment on T-47D breast. The TGI in the experiment with BT-549 breast worked out at 23 µM; in the experiment on MCF7 breast it was 21.9 µM; in the experiment with MDA-MB-231 breast, 14.6 µM; in the experiment on T-47D breast, 26.3 µM.
Turning to `COc1ccc(/C=C/C(=O)c2ccc3cc(OC)c(OC)cc3c2)cc1OC`, the GI50 with BT-549 breast is 2.55 µM; in the experiment with MCF7 breast, 2.69 µM; with MDA-MB-231 breast, 6.19 µM; in the experiment on T-47D breast, 2.93 µM. Further, the TGI was 8.39 µM with BT-549 breast, 12.1 µM with MCF7 breast, above 100 µM in the experiment on MDA-MB-231 breast and 33.5 µM in the experiment with T-47D breast.
In the case of `COc1ccc2[nH]c(=O)c(/C=C/C(=O)/C=C/c3ccc(O)c(OC)c3)cc2c1`, the GI50 in the experiment on BT-549 breast is 1.37 µM; in the experiment on MCF7 breast it was 0.388 µM; with MDA-MB-231 breast it was 1.92 µM; in the experiment on T-47D breast it was 2.63 µM. The TGI in the experiment with BT-549 breast came to 2.66 µM; in the experiment on MCF7 breast it was 1.89 µM; with MDA-MB-231 breast, 3.78 µM; in the experiment on T-47D breast, 13.9 µM.
Turning to `C/C1=C\C/C=C(\C)[C@H]2CC(CC/C(C)=C/CC1)[C@@](C)(CO)O2`, the GI50 in the experiment on BT-549 breast was above 100 µM; with MCF7 breast it was 26.7 µM; with MDA-MB-231 breast, 54.9 µM; in the experiment with T-47D breast, above 100 µM. Moreover, the TGI in the experiment with BT-549 breast was above 100 µM; in the experiment with MCF7 breast it was 77.7 µM; in the experiment with MDA-MB-231 breast, above 100 µM; in the experiment on T-47D breast it was above 100 µM.
Regarding `CCN(CC)CCCOc1cc(O)c2c(=O)cc(-c3ccccc3)oc2c1`, the GI50 in the experiment with BT-549 breast is 13.3 µM; with MCF7 breast it was 4.16 µM; in the experiment with MDA-MB-231 breast it was 6.54 µM; with T-47D breast, 15.5 µM. Also, the TGI in the experiment on BT-549 breast was found to be 26.6 µM; with MCF7 breast, 16.2 µM; in the experiment with MDA-MB-231 breast, 18.9 µM; with T-47D breast, 33.4 µM.
As for `Cc1cc2c3ccccc3ccc2[n+]2ccccc12`, the GI50 in the experiment with BT-549 breast is 1.4 µM; in the experiment with MCF7 breast it was 2.35 µM; in the experiment with MDA-MB-231 breast, 18.5 µM; in the experiment on T-47D breast, 1.86 µM. The TGI in the experiment with BT-549 breast is 7.77 µM; in the experiment with MCF7 breast, above 38.8 µM; in the experiment on MDA-MB-231 breast it was above 100 µM; in the experiment on T-47D breast it was 6.8 µM.
As for `ClC1=NC(Cl)C(Cl)=N/C1=N\c1ncn[nH]1` (configuration not stated), the GI50 with BT-549 breast was 2.45 µM; with MCF7 breast it was 1.78 µM; with MDA-MB-231 breast, 1.79 µM; in the experiment with T-47D breast, 1.9 µM. The TGI in the experiment with BT-549 breast amounted to 5.42 µM; in the experiment on MCF7 breast it was 4.15 µM; in the experiment with MDA-MB-231 breast it was 3.55 µM; in the experiment with T-47D breast it was 3.91 µM.
Regarding `CC1(C)CC(=O)c2c(ccc(C(=O)C[C@H](N)CO)c2N)O1`, the GI50 in the experiment on BT-549 breast was 6.44 µM and 2.87 µM; in the experiment with MDA-MB-231 breast, above 17.5 µM; in the experiment on T-47D breast, 5.94 µM and 3.52 µM. In addition, the TGI in the experiment on BT-549 breast is 17.5 µM and 25.4 µM; with MCF7 breast, 17.5 µM and > 33.3 µM; in the experiment on MDA-MB-231 breast, above 17.5 µM; in the experiment with T-47D breast, 17.5 µM and > 33.3 µM.
With `N#Cc1cccc(/C=C(/C(=O)c2ccccc2)c2ccccc2)c1`, the GI50 in the experiment on BT-549 breast was 4.16 µM; in the experiment on MCF7 breast, 3.85 µM; with MDA-MB-231 breast, 4.25 µM; in the experiment on T-47D breast, 3.78 µM. Besides, the TGI is 15.1 µM in the experiment with BT-549 breast, 15.9 µM in the experiment on MCF7 breast, above 100 µM in the experiment with MDA-MB-231 breast and 17.3 µM in the experiment with T-47D breast.
With `Nc1c(C(=O)c2cccc(CCC3(O)CCCC3)c2)cnn1-c1ccc(F)cc1`, the GI50 in the experiment on BT-549 breast is 9.75 µM; with MCF7 breast it was 9.65 µM; in the experiment on MDA-MB-231 breast, above 20.9 µM; in the experiment with T-47D breast, 6.52 µM. Further, the TGI with BT-549 breast, in the experiment on MCF7 breast, in the experiment with MDA-MB-231 breast and in the experiment on T-47D breast was above 25 µM throughout.
Take `CN(C)C(=O)c1cc2cnc(Nc3ccc(-c4csc5c(=O)cc(N6CCNCC6)oc45)cc3)nc2n1C1CCCC1`: the GI50 with BT-549 breast was 1.35 µM; in the experiment on MCF7 breast, 0.294 µM; in the experiment with MDA-MB-231 breast, 0.71 µM; in the experiment with T-47D breast, 0.949 µM. Besides, the TGI with BT-549 breast came out at 3.15 µM; with MCF7 breast it was 1.57 µM; in the experiment on MDA-MB-231 breast, 2.24 µM; in the experiment with T-47D breast, 9.5 µM.
As to `COc1ccc2c(c1)sc1nc(-c3ccccc3)c(-c3ccc(O)c(OC)c3)n12`, the GI50 with BT-549 breast is 17.5 µM; with MCF7 breast, 28.6 µM; with MDA-MB-231 breast it was 9.8 µM; with T-47D breast it was 83.1 µM. The TGI in the experiment with BT-549 breast, in the experiment with MCF7 breast, in the experiment with MDA-MB-231 breast and in the experiment with T-47D breast was above 100 µM in each case.
Consider `COc1ccc(-c2cc(-c3cn[nH]c3-c3ccccn3)ccn2)cc1`, for which the GI50 in the experiment with BT-549 breast, in the experiment with MCF7 breast, in the experiment with MDA-MB-231 breast and in the experiment with T-47D breast was above 25 µM in each case. The TGI with BT-549 breast, in the experiment with MCF7 breast, in the experiment on MDA-MB-231 breast and in the experiment on T-47D breast was above 25 µM in each case.

The values above are taken from PubChem BioAssay (NCI).
